Reference: paper PMC6748986, “Potent modulation of the CepR quorum sensing receptor and virulence in a Burkholderia cepacia complex member using non-native lactone ligands” (Scientific Reports, 2019)

What was measured:
CepR [1] = biological target: T1, CepR (Burkholderia cenocepacia, UniProt B4EMD0); assay: CepR agonism in E. coli β-galactosidase reporter (Ec-reporter) JLD271 [pJN105-cepR + pSC11-cepI]; format: cell-based, B. cenocepacia; conditions: for Act%: Table S2, Ec-reporter
T1 sequence (B4EMD0 1-239): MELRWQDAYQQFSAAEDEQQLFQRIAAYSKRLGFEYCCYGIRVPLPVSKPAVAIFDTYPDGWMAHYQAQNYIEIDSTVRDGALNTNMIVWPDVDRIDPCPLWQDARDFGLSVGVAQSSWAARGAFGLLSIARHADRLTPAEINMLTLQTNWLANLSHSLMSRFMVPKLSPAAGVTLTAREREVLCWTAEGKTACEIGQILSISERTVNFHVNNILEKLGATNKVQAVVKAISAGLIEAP
From the text: (§1) We began our study by screening the AHL library for CepR modulators using an E. coli-based two plasmid reporter system (Ec-reporter)[38]–[40]. Certain members of the Bcc harbor additional QS systems that are either AHL-based (e.g., BviI/BviR in B. vietnamiensis)[41] or diffusible signal factor (DSF)-based (B. cenocepacia)[42], and at least one member of the Bcc has multiple receptors that respond to C8-AHL (e.g., CepR and CepR2 in B. cenocepacia)[43]. Thus, we reasoned that using a CepR reporter in a heterologous background could simplify our initial analyses. We modified our previously reported E. coli-based two plasmid β-galactosidase reporter system to develop a CepR Ec-reporter (see Methods). The first plasmid, pJN105-cepR, contains CepR from B. cenocepacia under the control of the L-arabinose inducible pBAD promoter. A second plasmid contains a transcriptional fusion of lacZ to the cepI promoter region. The two plasmids were co-transformed into a QS mutant E. coli strain (JLD271 ∆sdiA) that lacks its LuxR-type receptor, SdiA. Using this reporter system, if an exogenously -added compound is able to interact with CepR, this will affect the protein’s interaction with the cepI promoter region and alter β-galactosidase production. Enzyme production, and thereby CepR activity, is then measurable via the degradation of a colorimetric substrate for β-galactosidase. Using this new Ec-reporter, we observed robust activity of CepR in response to its native ligand C8-AHL, with an EC50 of 5 nM (Table 1).
We used the CepR Ec-reporter to perform a primary agonism screen at a single compound concentration (100 μM, or its solubility limit, indicated in Table S1). Thirty-one compounds displaying ≥70% agonistic activity in CepR (relative to C8-AHL) were identified and subjected to dose-response analyses using the Ec-reporter (Table I; see Table S2 for complete screening data and Fig. S3 for dose-response curves).
(§2) E. coli β-galactosidase reporter assays (derived from ref.[63]) and reagents used to obtain primary screening and dose-response data were performed as previously described[22],[60],[64], with the following modifications: E. coli JLD271 (∆sdiA) was co-transformed iteratively with pSC11-cepI and pJN105-cepR via electroporation. A single colony was used to start overnight cultures in LB medium + ampicillin (100 μg/mL) + gentamicin (15 μg/mL). A 1:10 dilution of overnight culture was grown in fresh medium to OD600 = 0.25. A sterile solution of L-arabinose in water (27 mM final concentration) was added to induce protein expression, after which cells were plated in 96-well plates containing varying concentrations of compound (200 μL total volume).
(§3) Cells were grown for 4 h, OD600 was read, 50 μL aliquots from each well were permeabilized in 200 μL Z Buffer, and then 150 μL of this mixture used to measure the cleavage of 25 μL of 4 mg/mL CPRG in phosphate buffered saline (PBS) at 37 °C until positive control wells developed a deep red color (~30 min). For all agonism assays, synthetic compound (100 μM) was screened alongside and compared to the native ligand, C8-AHL (100 μM). For all primary and dose-response antagonism assays, the concentration of native ligand utilized was 10 nM (approximately equal to twice its EC50 value). […] At least 3 separate trials were performed using unique cultures on separate days.

CepR [2] = biological target: T1, CepR; assay: CepR antagonism in E. coli β-galactosidase reporter (Ec-reporter), competition against C8-AHL; format: cell-based, B. cenocepacia; conditions: for Inh% (100-Act%): Table S3, Ec-reporter; for CepR antagonism in words: Ec-reporter
From the text: as §1
To identify antagonists of CepR, we screened the AHL library (at 100 μM) in competition against the native ligand C8-AHL (at approximately twice its EC50 value, 0.01 μM) in the Ec-reporter. […] The active compounds were subjected to dose-response analyses in the Ec-reporter to obtain IC50 values and assess their relative potencies (Table 2; see Table S3 for complete screening data and Fig. S3 for dose-response curves). One general trend that we noted at the outset was the majority of the antagonists had acyl tails of similar or shorter overall length than CepR’s native ligand, C8-AHL. From this set, the strongest antagonists could be divided into two classes: (i) “short alkyl tail” AHLs or analogs thereof, and (ii) phenylacetanoyl HLs (PHLs). The discovery that the latter compounds were CepR antagonists was perhaps not surprising, as we have found substituted PHLs to strongly antagonize the majority of the LuxR-type receptors studied in our laboratory to date[22],[24],[29],[45],[46].
as §2, §3

[3] = screening conc. 100 μM, against 10 nM C8-AHL

Compound: COc1cccc(CC(=O)N[C@H]2CCOC2=O)c1 [Compound E2]
- Act% (CepR [1]; screening conc. 100 μM): 28%
- Inh% (100-Act%) (CepR [2]; [3]): -10%

Compound: CCCCCCCCCC(=O)CC(=O)NCCc1ccccc1 [Compound F50]
- Act% (CepR [1]; screening conc. 50 μM): 12%
- Inh% (100-Act%) (CepR [2]; screening conc. 50 μM): 1.0%

Compound: O=C(COc1ccccc1)N[C@H]1CCOC1=O [Compound E14]
- Act% (CepR [1]; screening conc. 100 μM): 57%
- Inh% (100-Act%) (CepR [2]; [3]): -30%

Compound: CCCCCCCCCCCC(O)CC(=O)N[C@@H]1CCOC1=O (some centres unmarked) [3’OH-C14-AHL, reference compound]
- Act% (CepR [1]; screening conc. 100 μM): 33%
- Inh% (100-Act%) (CepR [2]; [3]): -40%

Compound: Cc1ccc(C(=O)N[C@H]2CCOC2=O)cc1 [Compound Q8]
- Act% (CepR [1]; screening conc. 100 μM): 19%
- Inh% (100-Act%) (CepR [2]; [3]): -20%

Compound: CCCCCCCCCC(=O)CC(=O)Nc1ccccc1 [3’O-C12-analine, reference compound]
- Act% (CepR [1]; screening conc. 100 μM): 52%
- Inh% (100-Act%) (CepR [2]; [3]): 16%

Compound: O=C(Cc1cccc([N+](=O)[O-])c1)Nc1ccccc1 [Compound F25]
- Act% (CepR [1]; screening conc. 100 μM): 3.0%
- CepR antagonism in words (CepR [2]): dramatic losses in activity
- Inh% (100-Act%) (CepR [2]; [3]): 12%

Compound: O=C(Cc1ccc(F)cc1)N[C@H]1CCOC1=O [Compound C2]
- Act% (CepR [1]; screening conc. 100 μM): 0.1%
- CepR antagonism in words (CepR [2]): inactive as antagonists
- Inh% (100-Act%) (CepR [2]; [3]): 4.0%

Compound: CC(C)(C)OC(=O)c1ccc(C(=O)N[C@H]2CCOC2=O)cc1 [Compound Q13]
- Act% (CepR [1]; screening conc. 100 μM): 6.8%
- Inh% (100-Act%) (CepR [2]; [3]): 11%

Compound: CCCCCCCCCC(=O)CC(=O)NC1CCCCC1=O (centres unmarked) [Control 15, reference compound]
- Act% (CepR [1]; screening conc. 100 μM): 5.2%
- Inh% (100-Act%) (CepR [2]; [3]): 29%

Compound: CCCCCC(=O)CC(=O)NC1CCSC1=O (centres unmarked) [3’O-C8-TL]
- Act% (CepR [1]; screening conc. 100 μM): 61%
- Inh% (100-Act%) (CepR [2]; [3]): -20%

Compound: CCCCCCCCCCCCCCCC(=O)N[C@H]1CCOC1=O [Compound C16-AHL, hexadecanoyl L-homoserine lactone, reference compound]
- CepR agonism in words (CepR [1]; Ec-reporter): inactive
- Maximal Activation (%) (CepR [1]; Ec-reporter, activity for 100 μM C8-AHL set to 100%, error ±10%): 35%
- Act% (CepR [1]; screening conc. 25 μM): 35%
- Inh% (100-Act%) (CepR [2]; screening conc. 25 μM): -10%

Compound: CSc1ccc(CC(=O)N[C@H]2CCOC2=O)cc1 [Compound E6]
- Act% (CepR [1]; screening conc. 100 μM): 3.7%
- Inh% (100-Act%) (CepR [2]; [3]): -10%

Compound: CCCCCCCCCC(=O)CC(=O)NCc1ccc(OC)cc1 [Compound F31]
- Act% (CepR [1]; screening conc. 100 μM): 7.6%
- Inh% (100-Act%) (CepR [2]; [3]): 21%

Compound: meta-bromo-thiolactone [mBTL, reference compound]
- Act% (CepR [1]; screening conc. 100 μM): 0.4%
- Inh% (100-Act%) (CepR [2]; [3]): -60%

Compound: O=C(Cc1cccc([N+](=O)[O-])c1)NC1CCCC1 [Compound F18]
- Act% (CepR [1]; screening conc. 100 μM): 1.0%
- CepR antagonism in words (CepR [2]): dramatic losses in activity
- Inh% (100-Act%) (CepR [2]; [3]): -20%

Compound: O=C(CCCc1ccccc1)N[C@H]1CCOC1=O [Control 6, reference compound]
- Act% (CepR [1]; screening conc. 100 μM): 80%
- Inh% (100-Act%) (CepR [2]; [3]): 3.0%

Compound: O=C(Cc1ccc(-c2ccccc2)cc1)NC1CCSC1=O (centres unmarked) [Compound F13]
- Act% (CepR [1]; screening conc. 100 μM): 35%
- Inh% (100-Act%) (CepR [2]; [3]): -20%

Compound: COc1ccc(OCC(=O)N[C@H]2CCOC2=O)cc1 [Compound E17]
- Act% (CepR [1]; screening conc. 100 μM): 50%
- Inh% (100-Act%) (CepR [2]; [3]): 0.0%

Compound: O=C(N[C@H]1CCOC1=O)c1ccc(F)cc1 [Compound Q3]
- Act% (CepR [1]; screening conc. 100 μM): 11%
- Inh% (100-Act%) (CepR [2]; [3]): 17%

Compound: O=C(COc1ccc(C(F)(F)F)cc1)N[C@H]1CCOC1=O [Compound E23]
- Act% (CepR [1]; screening conc. 100 μM): 89%
- Inh% (100-Act%) (CepR [2]; [3]): -10%

Compound: O=C(COc1ccc(I)cc1)N[C@H]1CCOC1=O [Compound E22]
- Act% (CepR [1]; screening conc. 100 μM): 92%
- Inh% (100-Act%) (CepR [2]; [3]): -30%

Compound: O=C(Cc1ccc2ccccc2c1)N[C@H]1CCOC1=O [Compound E12]
- Act% (CepR [1]; screening conc. 100 μM): 11%
- Inh% (100-Act%) (CepR [2]; [3]): -10%

Compound: O=C(Cc1ccc(-c2ccccc2)cc1)NC1CCCC1 [Compound F20]
- Act% (CepR [1]; screening conc. 100 μM): 0.5%
- Inh% (100-Act%) (CepR [2]; [3]): -10%

Compound: O=C(CCCC1CCCCC1)N[C@H]1CCOC1=O [Compound S6]
- Act% (CepR [1]; screening conc. 100 μM): 90%
- Inh% (100-Act%) (CepR [2]; [3]): -10%

Compound: O=C(Cc1cc(C(F)(F)F)cc(C(F)(F)F)c1)N[C@H]1CCOC1=O [Compound E9]
- Act% (CepR [1]; screening conc. 100 μM): 2.2%
- Inh% (100-Act%) (CepR [2]; [3]): 13%

Compound: O=C(Cc1ccc(Cl)cc1)N[C@H]1CCOC1=O [Compound C5]
- Act% (CepR [1]; screening conc. 100 μM): 0.1%
- Inh% (100-Act%) (CepR [2]; [3]): 25%
